Source: patent US10441537B2, “Unit doses, aerosols, kits, and methods for treating heart conditions by pulmonary administration” (InCarda Therapeutics, Inc., priority 2017, dated 2019)
Like-named read-outs stand apart in the source and are kept apart here.

Legend:
[1] = tested on: induced atrial fibrillation; assay: Conversion of phenylephrine/burst-pacing-induced AF in anesthetized beagle dogs (Example 7); assay type: in vivo; settings: for Time to NSR: IT
Description: The study was carried out in anesthetized healthy adult beagle dogs with induced AF. Acute AF was induced using the combination of phenylephrine ([…]), to increase heterogeneity of atrial refractory periods via increased loading and through a baroreceptor-mediated increase in parasympathetic efferent activity, and right atrial burst pacing (40-50 Hz for ˜15 min). The AF induced using this method was, in general, stable for more than 30 mins.
The cardiac rhythm was monitored prior to, during AF, and up to 10 min post-dosing and/or until conversion to NSR.

[2] = tested on: induced atrial fibrillation; assay: ACh and burst-pacing-induced AF duration in pigs (Example 5); assay type: in vivo; settings: IT 1.5 mg/kg
Description: At one min after intrapericardial administration of ACh (1 ml of 100 mM), burst pacing was performed to initiate AF in the control cohort (FIG. 60). In the experimental cohort, after ACh and burst-pacing-induced AF, a stable period of 2 min of AF was allowed (FIG. 60). […] Table 12; FIG. 61).

healthy volunteers [3] = assay: Phase 1 study: lung spirometry tests; assay type: in vivo, human
Description: (§1) Pulmonary safety was assessed by performing lung spirometry tests and measuring peripheral oxygen saturation (SpO2%) prior to dosing and at various times after completion of the inhalation. Lung spirometry tests evaluated all lung function parameters, including forced vital capacity (FVC), forced expiratory volume in 1 second (FEV1), peak expiratory flow (PEF), and forced expiratory flow at 25% and 75% intervals (FEF25-75). Auscultation and respiration rate were also measured prior to dosing and at various times after inhalation. Chest x-rays were performed on subjects before and after flecainide inhalation.

healthy volunteers [4] = settings: in vivo
Description: 3 cohorts of subjects, in total 34 healthy adult volunteers, were recruited for Part A study.
Part B was an open label non-randomized crossover in a cohort of 6 evaluable healthy adult volunteers.
Adverse events were monitored and recorded.

[5] = tested on: induced atrial fibrillation; assay: Conversion of ACh/burst-pacing-induced AF in intact porcine model (Example 6); assay type: in vivo, pigs
Description: After 30-min recovery, the alternate intervention was tested. Times for conversion to normal sinus rhythm were compared.

physchem = settings: water
healthy volunteers [6] = assay: Phase 1 study: peripheral oxygen saturation (SpO2%); assay type: in vivo, human; settings: for Oxygen Saturation (SpO2%), Mean: Predose
Description: as §1

[7] = IV 2 mg/Kg, n=3, package insert; cited from earlier work

## O=C(NCC1CCCCN1)c1cc(OCC(F)(F)F)ccc1OCC(F)(F)F (centres unmarked) [flecainide, flecainide acetate]
[1]; Animal 002, dose 0.75 (0.25 + 0.5) mg/kg
  Time to NSR: 52 s
[1]; Animal 003, dose 0.75 mg/kg
  Time to NSR: 12 s
[1]; Animal 004, dose 0.75 mg/kg
  Time to NSR: 23 s
[1]; Animal 005, dose 0.75 mg/kg
  Time to NSR: 62 s
[1]; Animal 006, dose 1.0 (0.75 + 0.25) mg/kg
  Time to NSR: 83 s
[1]; IV compared with IT administration
  effects in BP, VR and LV dP/dtmax upon conversion, IV vs IT: greater effects in BP, VR and LV dP/dtmax
[2]; 30-min window of observation
  recurrence of AF after restoration of sinus rhythm: no recurrence of AF occurred
[2]; Pig 236 (No drug 10)
  AF duration: 4 min
[2]; Pig 238 (No drug 12)
  AF duration: 3 min
[2]; Pig 239 (No drug 12)
  AF duration: 3 min
2.6 mg/mL
  pH of solution in water: 5.0
Distilled water, diltiazem hydrochloride 50 mg/ml, flecainide acetate 30 mg/ml
  appearance of solution: clear with no visible particulate matter
Healthy volunteers [3]; 20 mg eTLD, 24 hours Post-dose
  FEF25-75, Mean: 5.40 L/s
Healthy volunteers [3]; 40 mg eTLD, 12 hours Pre-dose
  FEF25-75, Mean: 5.00 L/s
Healthy volunteers [3]; 40 mg eTLD, 24 hours Post-dose
  FEF25-75, Mean: 4.80 L/s
Healthy volunteers [3]; Cohorts 1, 2, 3 and 5
  standard lung spirometry measurements (FEV1, PEF, FVC, FEF 25-75) and peripheral O2 saturation: normal before and after
Healthy volunteers [4]; both, human
  Adverse Event: Cough: 1
  Adverse Event: Lightheadedness: 1
  study-drug related Cough: 3 events in 3/25 subjects (12%)
  study-drug related Dry mouth: 3 events in 3/25 subjects (12%)
  study-drug related Dysgeusia: 2 events in 2/25 subjects (8%)
  study-drug related Dyspnoea (shortness of breath): 4 events in 4/25 subjects (16%)
  study-drug related Oropharyngeal discomfort: 10 events in 10/25 subjects (40%)
  study-drug related dizziness: 3 events in 3/25 subjects (12%)
  study-drug related headache: 3 events in 2/25 subjects (8%)
Healthy volunteers [4]; human
  average events per subject: 2
  probably study-drug related oropharyngeal discomfort, subjects: 4
  study-drug related paresthesia oral: 3 events in 3 subjects
Healthy volunteers [4]; human, iv
  average events per subject: 7
  hypotension (systolic BP) for which the IV infusion had to be interrupted: < 65 mmHg
  severe and moderate intensity AEs probably related to the study drug: 1 severe and 2 moderate intensity AEs
  study-drug related application site coldness: 2 occurrences in 2 subjects
  study-drug related dizziness: 6 events in 6 subjects
  study-drug related headache: 5 events in 5 subjects
  study-drug related peripheral coldness, palpitations, and chest discomfort: each occurring 2 times 1 subject
Healthy volunteers [4]; human, iv, 2 mg/kg
  Number of Moderate or Severe TEAEs: 4
  Number of Related TEAEs: 35
  Number of Related, Moderate or Severe TEAEs: 4
  Number of SAEs: 0
  Number of Subjects with at least one Moderate or Severe TEAE: 2 subjects (29%) n (%)
  Number of Subjects with at least one TEAE: 7 (100) n (%)
  Number of Treatment-Emergent Adverse Events: 49
  TEAE: Chest discomfort: 3 such events also occurred in 1 subject n (%) [events]
  TEAE: Dizziness: 6 events in 6/7 subjects, 86% n (%) [events]
  TEAE: Headache: 6 events in 5/7 subjects, 71% n (%) [events]
Healthy volunteers [4]; human, po
  remaining study-drug related events (cough, dysphonia, dyspnoea, oral hypoesthesia, chest discomfort): once in 1 subject each
Healthy volunteers [4]
  serious adverse events: No serious adverse events were reported
  tolerability: well tolerated
Healthy volunteers [4]; iv, 2 mg/kg
  Number of SAEs: no SAEs reported
[5]; IT 0.75 mg/kg and 1.5 mg/kg (FIG. 66A)
  time within which plasma concentration reached levels required for conversion: ≤ 10 min
[5]; IT 0.75 mg/kg and 1.5 mg/kg (FIG. 67)
  dominant frequency of AF: reduced the dominant frequency of AF
[5]; IT 1.5 mg/kg (FIG. 65)
  AF conversion in representative electrograms: 5 min
[5]; IT 1.5 mg/kg or 0.75 mg/kg
  MAP and ventricular rate after conversion: restored MAP and ventricular rate to baseline values
physchem
  solubility: ~30 mg/mL
Healthy volunteers [6]; 20 mg eTLD, 15 min Postdose
  SpO2%, Mean: 97%
Healthy volunteers [6]; 20 mg eTLD, 30 min Postdose
  SpO2%, Mean: 97%
Healthy volunteers [6]; 20 mg eTLD, 45 min Postdose
  SpO2%, Mean: 97%
Healthy volunteers [6]; 20 mg eTLD, 60 min Postdose
  SpO2%, Mean: 97%
Healthy volunteers [6]; 20 mg eTLD, 75 min Postdose
  SpO2%, Mean: 98%
Healthy volunteers [6]; 20 mg eTLD, 90 min Postdose
  SpO2%, Mean: 98%
Healthy volunteers [6]; 20 mg eTLD, 105 min Postdose
  SpO2%, Mean: 97%
Healthy volunteers [6]; 20 mg eTLD, 120 min Postdose
  SpO2%, Mean: 98%
Healthy volunteers [6]; 40 mg eTLD, 15 min Postdose
  SpO2%, Mean: 96%
Healthy volunteers [6]; 40 mg eTLD, 30 min Postdose
  SpO2%, Mean: 97%
Healthy volunteers [6]; 40 mg eTLD, 45 min Postdose
  SpO2%, Mean: 96%
Healthy volunteers [6]; 40 mg eTLD, 60 min Postdose
  SpO2%, Mean: 96%
Healthy volunteers [6]; 40 mg eTLD, 75 min Postdose
  SpO2%, Mean: 97%
Healthy volunteers [6]; 40 mg eTLD, 90 min Postdose
  SpO2%, Mean: 97%
Healthy volunteers [6]; 40 mg eTLD, 105 min Postdose
  SpO2%, Mean: 97%
Healthy volunteers [6]; 40 mg eTLD, 120 min Postdose
  SpO2%, Mean: 97%
Healthy volunteers [6]; Cohorts 1 and 2
  pre-dose and post-dose values for SpO2 (normal range): 97-98%
Healthy volunteers [6]; inhaled 20 mg eTLD, Cohort 1 (n=6)
  Oxygen Saturation (SpO2%), Mean: 98%
Healthy volunteers [6]; inhaled 40 mg eTLD, Cohort 2 (n=10)
  Oxygen Saturation (SpO2%), Mean: 97%
[7]
  Tmax: 10.0 min after EOI
